# Source: patent US7189702B2, “Glucopyranosyloxypyrazole derivatives and medicinal use thereof” (Kissei Pharmaceutical Co., Ltd., priority 2001, dated 2007)
# Target: T1, human SGLT2 (Homo sapiens, UniProt P31639, I433V)
# T1 construct: expressed in transfected cells; host or cells: COS-7 cells (RIKEN CELL BANK RCB0539), transient, electroporation of KL29
# T1 sequence (P31639 1-672 I433V): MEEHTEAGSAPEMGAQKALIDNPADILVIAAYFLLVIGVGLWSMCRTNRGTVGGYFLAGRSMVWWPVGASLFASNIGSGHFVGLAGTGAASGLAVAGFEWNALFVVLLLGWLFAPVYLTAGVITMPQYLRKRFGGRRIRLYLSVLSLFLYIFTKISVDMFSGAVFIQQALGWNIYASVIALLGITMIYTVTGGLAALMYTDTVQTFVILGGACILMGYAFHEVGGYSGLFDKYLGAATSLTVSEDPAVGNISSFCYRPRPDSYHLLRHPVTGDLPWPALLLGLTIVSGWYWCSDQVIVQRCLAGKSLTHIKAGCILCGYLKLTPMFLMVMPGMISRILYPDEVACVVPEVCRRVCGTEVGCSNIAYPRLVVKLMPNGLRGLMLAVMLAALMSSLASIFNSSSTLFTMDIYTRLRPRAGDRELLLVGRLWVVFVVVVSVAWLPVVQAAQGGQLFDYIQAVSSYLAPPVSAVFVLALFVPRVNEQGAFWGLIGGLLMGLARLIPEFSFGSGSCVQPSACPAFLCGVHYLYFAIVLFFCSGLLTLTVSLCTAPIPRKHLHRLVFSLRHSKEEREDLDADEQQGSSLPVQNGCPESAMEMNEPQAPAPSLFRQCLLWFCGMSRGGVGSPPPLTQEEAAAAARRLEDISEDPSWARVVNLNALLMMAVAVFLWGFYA
# Test: Assay for inhibitory effect on human SGLT2 activity (uptake of methyl-α-D-glucopyranoside)
# Type: cell-based
# Conditions: inhibition of methyl-α-D-(U-14C)glucopyranoside uptake, COS-7 cells expressing transiently human SGLT2, 37° C., 2 hours
# Procedure: Assay for Inhibitory Effect on Human SGLT2 Activity
# 1) Construction of the Plasmid Vector Expressing Human SGLT2
# Preparation of the cDNA library for PCR amplification was performed by reverse transcription of a total RNA deprived from human kidney (Ori gene) with oligo dT as the primer, using SUPERSCRIPT Preamplification System (Gibco-BRL: LIFE TECHNOLOGIES). The DNA fragment coding for human SGLT2 was amplified by the PCR reaction, in which the human kidney cDNA library described above was used as the template and the following oligo nucleotides 0702F and 0712R, presented as Sequence Numbers 1 and 2 respectively, were used as the primers. The amplified DNA fragment was ligated into pCR-Blunt (Invitrogen), a vector for cloning, according to standard method of the kit. The Escherichia coli HB101 was transformed according to usual method and then selection of the transformants was performed on the LB agar medium containing 50 μg/mL of kanamycin. After plasmid DNA was extracted and purified from the one of the transformants, amplifying of the DNA fragment coding for human SGLT2 was performed by the PCR reaction, in which the following oligo nucleotides 0714F and 0715R, presented as Sequence Numbers 3 and 4 respectively, were used as the primers. The amplified DNA fragment was digested with restriction enzymes, Xho I and Hind III, and then purified with Wizard Purification System (Promega). This purified DNA fragment was inserted at the corresponding restriction sites of pcDNA3.1 (−) Myc/His-B (Invitrogen), a vector for expressing of fusion protein. The Escherichia coli HB101 was transformed according to usual method and then selection of the transformant was performed on the LB agar medium containing 100 μg/mL of ampicillin. After plasmid DNA was extracted and purified from this transformant, the base sequence of the DNA fragment inserted at the multi-cloning sites of the vector pcDNA3.1 (−) Myc/His-B was analyzed. […] Sequentially, a clone in which valine is substituted for isoleucine-433 was obtained. This plasmid vector expressing human SGLT2 in which the peptide presented as Sequence Number 5 is fused to the carboxyl terminal alanine residue was designated KL29.
# 2) Preparation of the Cells Expressing Transiently Human SGLT2
# KL29, the plasmid coding human SGLT2, was transfected into COS-7 cells (RIKEN CELL BANK RCB0539) by electroporation. Electroporation was performed with GENE PULSER II (Bio-Rad Laboratories) under the condition: 0.290 kV, 975 μF, 2×10^6 cells of COS-7 cell and 20 μg of KL29 in 500 μL of OPTI-MEM I medium (Gibco-BRL: LIFE TECHNOLOGIES) in the 0.4 cm type cuvette. After the gene transfer, the cells were harvested by centrifugation and resuspended with OPTI-MEM I medium (1 mL/cuvette). To each well in 96-wells plate, 125 μL of this cell suspension was added. After overnight culture at 37° C. under 5% CO2, 125 μL of DMEM medium which is containing 10% of fetal bovine serum (Sanko Jyunyaku), 100 units/mL sodium penicillin G (Gibco-BRL: LIFE TECHNOLOGIES), and 100 μg/mL streptomycin sulfate (Gibco-BRL: LIFE TECHNOLOGIES) was added to each well. These cells were cultured until the next day and then they were used for the measurement of the inhibitory activity against the uptake of methyl-α-D-glucopyranoside.
# 3) Measurement of the Inhibitory Activity Against the Uptake of methyl-α-D-glucopyranoside
# After a test compound was dissolved in dimethyl sulfoxide and diluted with the uptake buffer (a pH 7.4 buffer containing 140 mM sodium chloride, 2 mM potassium chloride, 1 mM calcium chloride, 1 mM magnesium chloride, 5 mM methyl-α-D-glucopyranoside, 10 mM 2-[4-(2-hydroxyethyl)-1-piperazinyl]ethane sulfonic acid and 5 mM tris(hydroxymethyl)aminomethane), each diluent was used as test sample for measurement of the inhibitory activity. […]
row,SMILES,IC50
1,"Cc1[nH]nc(O[C@@H]2O[C@H](CO)[C@@H](O)[C@H](O)[C@H]2O)c1Cc1ccc(C=C2CC2)cc1 [Example 20, 3-(β-D-Glucopyranosyloxy)-5-methyl-4-{[4-(cyclopropylidenemethyl)phenyl]methyl}-1H-pyrazole]",0.015 µM
2,"Cc1[nH]nc(O[C@@H]2O[C@H](CO)[C@@H](O)[C@H](O)[C@H]2O)c1Cc1ccc(C2CC2)cc1 [Example 21, 3-(β-D-Glucopyranosyloxy)-5-methyl-4-[(4-cyclopropylphenyl)methyl]-1H-pyrazole]",0.018 µM
3,"CC/C=C/c1ccc(Cc2c(O[C@@H]3O[C@H](CO)[C@@H](O)[C@H](O)[C@H]3O)n[nH]c2C)cc1 [Example 22, (E)-4-{[4-(But-1-en-1-yl)phenyl]methyl}-3-(β-D-glucopyranosyloxy)-5-methyl-1H-pyrazole]",0.041 µM
4,"Cc1[nH]nc(O[C@@H]2O[C@H](CO)[C@@H](O)[C@H](O)[C@H]2O)c1Cc1ccc(-c2nccs2)cc1 [Example 23, 3-(β-D-Glucopyranosyloxy)-5-methyl-4-{[4-(thiazol-2-yl)phenyl]methyl}-1H-pyrazole]",0.046 µM
5,"OCCCc1ccc(Cc2c(O[C@@H]3O[C@H](CO)[C@@H](O)[C@H](O)[C@H]3O)n[nH]c2C(F)(F)F)cc1 [Example 24, 3-(β-D-Glucopyranosyloxy)-4-{[4-(3-hydroxypropyl)phenyl]methyl}-5-trifluoromethyl-1H-pyrazole]",0.057 µM
6,"CC(C)=Cc1ccc(Cc2c(O[C@@H]3O[C@H](CO)[C@@H](O)[C@H](O)[C@H]3O)n[nH]c2C)cc1 [Example 25, 3-(β-D-Glucopyranosyloxy)-5-methyl-4-{[4-(2-methylprop-1-en-1-yl)phenyl]methyl}-1H-pyrazole]",0.065 µM
7,"Cc1[nH]nc(O[C@@H]2O[C@H](CO)[C@@H](O)[C@H](O)[C@H]2O)c1Cc1ccc(-c2ccc(F)cc2)cc1 [Example 26, 4-{[4-(4-Fluorophenyl)phenyl]methyl}-3-(β-D-glucopyranosyloxy)-5-methyl-1H-pyrazole]",0.15 µM
8,"Cc1[nH]nc(O[C@@H]2O[C@H](CO)[C@@H](O)[C@H](O)[C@H]2O)c1Cc1ccc(OC2CCC2)cc1 [Example 27, 4-{[4-(Cyclobutyloxy)phenyl]methyl}-3-(β-D-glucopyranosyloxy)-5-methyl-1H-pyrazole]",0.21 µM
9,"Cc1c(Cc2ccc(C3CC3)cc2)c(O[C@@H]2O[C@H](CO)[C@@H](O)[C@H](O)[C@H]2O)nn1CC1CC1 [Example 32, 3-(β-D-Glucopyranosyloxy)-5-methyl-1-(cyclopropylmethyl)-4-[(4-cyclopropylphenyl)methyl]-1H-pyrazole]",0.026 µM
10,"CSc1ccc(Cc2c(O[C@@H]3O[C@H](CO)[C@@H](O)[C@H](O)[C@H]3O)nn(CC3CC3)c2C)cc1 [Example 38, 1-(Cyclopropylmethyl)-3-(β-D-glucopyranosyloxy)-5-methyl-4-[(4-methylthiophenyl)methyl]-1H-pyrazole]",0.045 µM
11,"CCc1ccc(Cc2c(O[C@@H]3O[C@H](CO)[C@@H](O)[C@H](O)[C@H]3O)nn(CCCO)c2C)cc1 [Example 39, 4-[(4-Ethylphenyl)methyl]-3-(β-D-glucopyranosyloxy)-1-(3-hydroxypropyl)-5-methyl-1H-pyrazole]",0.047 µM
12,"CSc1ccc(Cc2c(C(F)(F)F)[nH][nH]c2=O)cc1 [WAY-123783, reference compound]",> 100 µM

# Same assay, conditions: statement in words
row,SMILES,inhibitory activity in human SGLT2
1,"CSc1ccc(Cc2c(C(F)(F)F)[nH][nH]c2=O)cc1 [WAY-123783, reference compound]",extremely weak

# Tested on: not given
# Test: not given
# Conditions: normal mice; J. Med. Chem., Vol. 39, pp. 3920–3928 (1996); cited from earlier work
row,SMILES,amount of excreted glucose
1,"CSc1ccc(Cc2c(C(F)(F)F)[nH][nH]c2=O)cc1 [WAY-123783, reference compound]",increased
